Laboratory results as given in patent EP4201929A1, “QUINOXALINE THIOREDOXIN REDUCTASE INHIBITORS” (geneXplain GmbH, priority 2021, dated 2023).

Key:
Assay type in all cases: cell-based
[1] = system: H23; test: Growth suppression, cancer cell line panel (resazurin); conditions: H23 lung, 48 hours
Method: (§1) Breast, colon, ovarian, cervical, liver and lung carcinoma cell lines were grown in DMEM supplemented with 10% FBS, and antibiotics were cultured at 37 °C and 5% CO2. Osteosarcoma, melanoma, lymphoma, neuroblastoma and leukemia cell lines were cultured in RPMI 1640 with 10% FBS and antibiotics. An oxygen concentration of 0.3% was obtained by flushing a sealed box containing the cells with premixed gas composed of 95% nitrogen (N2) and 5% CO2 (AGA AB, Sweden). To obtain an oxygen concentration of 0.05%, the cells were flushed with the premixed gas continuously throughout the experiment.
(§2) Cells were grown in 96-well plates at a density of 3000 cells per well with or without doxycycline and treated with compounds. After 48 hours of incubation the proliferative cell reagent resazurin (Thermo Fisher Scientific) was added to the cells. The degree of resazurin reduction, which reflects cell viability, was measured by microplate reader by monitoring the absorbance at 570 nm and 600 nm, according to the manufacturer.
(§3) Growth suppression by the soluble compound 1d*HCl in a panel of 27 cancer cell lines. The panel of cancer cell lines, including carcinomas of breast (MDA-MB231, SKBR3, T47D, MCF7; BT549, BT20, MDA-MB468), colon, (SW480, RKO, HT29, HCT116) ovarian (OVCAR3, OVCAR4, OVCAR8), cervical (SW756, C33A), liver (HEPG2) and lung (H23), osteosarcoma (SJSA and U2OS), melanoma (ME180), lymphoma (Raji, HDLM2), neuroblastoma (SKNAS, IMR32) and leukemia (NB4, K562) were treated with increasing concentrations of 1d*HCl: 0.4; 0.8; 1.6; 3.2; 6.4; 12.8; 25.6 µM in 96-well plates. After 48 hours of incubation the proliferative cell reagent resazurin was added to the cells. The degree of resazurin reduction, which reflects cell viability, was measured by microplate reader by monitoring the absorbance at 570 nm and 600 nm, according to the manufacturer, and the IC50 and AUC (area under curve) were determined (Table 2). As could be seen in Table 2, 1d*HCl suppressed the growth of cancer cell lines of a different origin, including carcinomas, osteosarcomas, melanoma, lymphoma, leukemia and neuroblastoma. These findings open up a possibility of the application of the present invention in anti-cancer therapy in a broad range of tumor types. Table 2: a) Breast cancer

[2] = system: HepG2; test: as above; conditions: HepG2 liver, 48 hours
Method: as §1, §2, §3

[3] = system: IMR32; test: as above; conditions: IMR32 neuroblastoma, 48 hours
Method: as §1, §2, §3

[4] = system: K562; test: as above; conditions: K562 leukemia, 48 hours
Method: as §1, §2, §3

[5] = system: MDA-MB-468; test: as above; conditions: MDA-MB-468 breast, 48 hours
Method: as §1, §2, §3

[6] = system: ME180; test: as above; conditions: ME180 (table section Cervical), 48 hours
Method: as §1, §2, §3

[7] = system: OVCAR8; test: as above; conditions: OVCAR8 ovarian, 48 hours
Method: as §1, §2, §3

[8] = system: RKO; test: as above; conditions: RKO colon, 48 hours
Method: as §1, §2, §3

[9] = system: Raji; test: as above; conditions: Raji lymphoma, 48 hours
Method: as §1, §2, §3

[10] = system: SJSA; test: as above; conditions: SJSA osteosarcoma, 48 hours
Method: as §1, §2, §3

[11] = system: SKNAS; test: as above; conditions: SKNAS neuroblastoma, 48 hours
Method: as §1, §2, §3

[12] = system: SW480; test: as above; conditions: SW480 colon, 48 hours
Method: as §1, §2, §3

[13] = target: T1, TrxRl (Homo sapiens, UniProt Q16881); test: TrxR1 enzymatic activity measurement in cellulo (TXN-dependent insulin reduction assay); conditions: MCF7 breast cancer cells, 5 or 10 µM, 2h after treatment, depending on concentration
T1 construct: endogenous in cells; host or cells: MCF7 (A37, A39); HCT116 (A39)
Method: MCF7 cells were treated with 5 or 10 µM 1d*HCl or DMSO as a control. Cells were collected 2 h and 6 h after treatment, washed twice with PBS, and lysed in 100 µL of lysis buffer (50 mM Tris-HCl, 2mM EDTA, 0.15 M NaCl, 1% Triton X-100, protease inhibitors (Roche), pH 7.5). Cells were scraped, collected and snap frozen. After three freeze-thawing cycles the lysate was spinned down, supernatant collected and protein concentration measured using Pierce bicinchoninic acid assay kit (BCA, from Thermofisher Scientific) according to the manufacturer's protocol. To measure TrxR activity, the end-point TXN-dependent insulin reduction assay was used, essentially as described previously (WC Stafford, et al, Irreversible inhibition of cytosolic thioredoxin reductase 1 as a mechanistic basis for anti-cancer therapy, Sci Transl Med (2018), Feb 14;10(428):eaaf7444. doi: 10.1126/scitranslmed.aaf7444). […] After 0, 15 and 30 min, 10 µL aliquots were taken and combined with 6 M guanidine-HCl and 2.5 mM DTNB in 96-well plates (PerkinElmer), whereupon the absorbance at 412 nm was measured using microplate spectrophotometer (TECAN). Levels of active TrxR were normalised to DMSO control samples from each treatment timepoint.
Having established that 1d*HCl inhibits TrxR1activity in vitro, it was important to confirm that 1d*HCl targets TrxRl in living cells. […]

[14] = target: GR (Homo sapiens, UniProt P00390); test: GR activity in cells
Description: Having established that 1d*HCl inhibits TrxR1activity in vitro, it was important to confirm that 1d*HCl targets TrxRl in living cells. Therefore, we tested whether 1d*HCl is able to inhibit the enzymatic activity of TrxRl in MCF7 breast cancer cells. […] In contrast, GR activity was not inhibited by 1d*HCl in cells, which is in line with the in vitro results. Thus, we conclude that 1d*HCl selectively targets TrxRl in cancer cells and inhibits its activity, leading to the induction of ROS and oxidative stress.

T1 sequence (Q16881 151-649): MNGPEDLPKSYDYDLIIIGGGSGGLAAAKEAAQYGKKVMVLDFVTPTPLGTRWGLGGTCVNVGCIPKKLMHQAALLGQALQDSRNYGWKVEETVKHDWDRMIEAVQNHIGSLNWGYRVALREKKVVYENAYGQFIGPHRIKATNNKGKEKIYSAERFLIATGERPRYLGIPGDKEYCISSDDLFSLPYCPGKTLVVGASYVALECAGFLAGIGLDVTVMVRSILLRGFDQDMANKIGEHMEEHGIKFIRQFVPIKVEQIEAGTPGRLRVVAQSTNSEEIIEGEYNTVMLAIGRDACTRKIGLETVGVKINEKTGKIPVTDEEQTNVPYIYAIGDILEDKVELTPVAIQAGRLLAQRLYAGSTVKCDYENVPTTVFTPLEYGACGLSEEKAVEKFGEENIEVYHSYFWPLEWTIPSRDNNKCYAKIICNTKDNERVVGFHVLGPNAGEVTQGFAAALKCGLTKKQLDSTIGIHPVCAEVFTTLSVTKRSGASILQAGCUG
GR, sequence (P00390 44-522): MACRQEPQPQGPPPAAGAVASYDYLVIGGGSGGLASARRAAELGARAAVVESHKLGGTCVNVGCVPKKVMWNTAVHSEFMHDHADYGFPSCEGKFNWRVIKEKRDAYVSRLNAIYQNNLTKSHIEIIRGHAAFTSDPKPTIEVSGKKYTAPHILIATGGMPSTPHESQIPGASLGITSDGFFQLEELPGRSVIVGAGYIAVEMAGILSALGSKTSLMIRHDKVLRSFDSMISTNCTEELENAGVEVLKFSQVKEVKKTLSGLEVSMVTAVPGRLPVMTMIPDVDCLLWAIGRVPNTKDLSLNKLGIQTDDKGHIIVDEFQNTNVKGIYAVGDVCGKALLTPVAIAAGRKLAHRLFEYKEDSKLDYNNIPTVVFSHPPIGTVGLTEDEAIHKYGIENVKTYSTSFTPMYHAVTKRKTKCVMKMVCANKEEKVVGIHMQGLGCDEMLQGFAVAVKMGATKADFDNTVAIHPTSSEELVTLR

Cl.N#Cc1c(-c2cccnc2)[n+]([O-])c2cc(F)c(N3CCOCC3)cc2[n+]1[O-] [1d*HCl, 6-Fluoro-7-(morpholin-4-yl)-3-(pyridin-3-yl)quinoxaline-2-carbonitrile-1,4-dioxide hydrochloride]
AUC ([1]; area under curve, 0.4-25.6 µM): 5,38 | IC50 ([1]; Homo sapiens, NCI-H23, resazurin, read-out: ICso): 3.54 µM | AUC ([2]; area under curve, 0.4-25.6 µM): 4,54 | IC50 ([2]; Homo sapiens, resazurin, read-out: ICso): 3.59 µM | IC50 ([3]; Homo sapiens, IMR-32, resazurin, read-out: ICso): 5.15 µM | AUC ([3]; area under curve, 0.4-25.6 µM): 6,40 | IC50 ([4]; Homo sapiens, resazurin): 2.95 µM | AUC ([4]; area under curve, 0.4-25.6 µM): 4,39 | IC50 ([5]; Homo sapiens, resazurin): 2.78 µM | AUC ([5]; area under curve, 0.4-25.6 µM): 4,04 | IC50 ([6]; Homo sapiens, ME-180, resazurin): 2.23 µM | AUC ([6]; area under curve, 0.4-25.6 µM): 2,72 | IC50 ([7]; Homo sapiens, OVCAR-8, resazurin): 2.36 µM | AUC ([7]; area under curve, 0.4-25.6 µM): 2,98 | IC50 ([8]; Homo sapiens, resazurin): 0.538 µM | AUC ([8]; area under curve, 0.4-25.6 µM): 0,942 | IC50 ([9]; Homo sapiens, resazurin): 1.22 µM | AUC ([9]; area under curve, 0.4-25.6 µM): 2,93 | IC50 ([10]; resazurin, read-out: ICso): 4.08 µM | AUC ([10]; area under curve, 0.4-25.6 µM): 4,96 | IC50 ([11]; Homo sapiens, SK-N-AS, resazurin, read-out: ICso): 4.68 µM | AUC ([11]; area under curve, 0.4-25.6 µM): 7,73 | IC50 ([12]; Homo sapiens, resazurin): 3.72 µM | AUC ([12]; area under curve, 0.4-25.6 µM): 4,78 | inhibition of TrxRl activity in cells [13]: 70-80% | GR activity in cells [14]: not inhibited
